# Results from patent US7144887B2, “Substituted 1,2,3-triazolo[1,5-a]quinazolines for enhancing cognition” (Merck Sharp & Dohme Ltd., priority 1999, dated 2006).
# Experiments:
# [1] = in vivo; cited from earlier work
melting point,Structure (SMILES),spatial learning in the Morris watermaze [1]
263 °C (dec.),Cc1cc(-c2nnn3c2nc(N2CCN(c4ccccc4)C(=O)C2)c2ccccc23)no1,
,COC(=O)c1cc2c(cn1)[nH]c1ccccc12 [β-CCM],enhanced spatial learning
247 °C (dec.),Cc1cc(-c2nnn3c2nc(N2CCN(c4cccnc4)C(=O)C2)c2ccccc23)no1,
266 °C (dec.),Cc1cc(-c2nnn3c2nc(N2CCN(c4ccccn4)C(=O)C2)c2ccccc23)no1,
